Source: PubChem BioAssay (NCI)
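All cell lines were grown in 96-well plates and treated with compound for 48 hours. At the GI50, growth is halved. TGI: total growth inhibition.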

Legend:
Assay in all cases: NCI-60 cell line screen, 48 h
TK-10 renal = system: TK-10 renal
HT29 colon = system: HT29 colon
OVCAR-5 ovarian = system: OVCAR-5 ovarian
SK-MEL-2 melanoma = system: SK-MEL-2 melanoma
HOP-62 NSCLC = system: HOP-62 NSCLC
SF-539 CNS = system: SF-539 CNS
OVCAR-8 ovarian = system: OVCAR-8 ovarian
U251 CNS = system: U251 CNS
BT-549 breast = system: BT-549 breast
MCF7 breast = system: MCF7 breast

Row | SMILES | TGI (TK-10 renal) | TGI (HT29 colon) | TGI (OVCAR-5 ovarian) | TGI (SK-MEL-2 melanoma) | TGI (HOP-62 NSCLC) | TGI (SF-539 CNS) | TGI (OVCAR-8 ovarian) | TGI (U251 CNS) | GI50 (TK-10 renal) | GI50 (HT29 colon) | GI50 (BT-549 breast) | TGI (BT-549 breast) | GI50 (OVCAR-5 ovarian) | GI50 (MCF7 breast) | TGI (MCF7 breast) | GI50 (SK-MEL-2 melanoma) | GI50 (HOP-62 NSCLC) | GI50 (SF-539 CNS) | GI50 (OVCAR-8 ovarian) | GI50 (U251 CNS)
1 | CCOc1cc2c(cc1OC)c[n+](C)c1c3cc(OC)c(OC)cc3ccc21 | > 100 µM | > 100 µM | > 85.2 µM | > 80.6 µM | > 100 µM | > 100 µM | > 100 µM | > 48.2 µM | – | – | – | – | – | – | – | – | – | – | – | –
2 | COc1ccccc1C1C(C#N)=C(N)SC(N)=C1C#N | > 100 µM | > 100 µM | > 100 µM | > 100 µM | > 100 µM | > 100 µM | > 100 µM | > 100 µM | > 100 µM | 37.4 µM | 55.6 µM | > 100 µM | > 100 µM | 30.6 µM | > 100 µM | > 100 µM | > 100 µM | 90.7 µM | 90.4 µM | 54 µM
3 | CCOC(=O)c1ccc(N2C(=O)/C(=C/c3ccc(N(CCC#N)CCC#N)cc3)N=C2c2cc([N+](=O)[O-])ccc2Cl)cc1 | > 100 µM | – | > 100 µM | > 100 µM | > 100 µM | > 100 µM | > 100 µM | > 100 µM | – | – | – | – | – | – | – | – | – | – | – | –
4 | CC1OC1C(=O)P(=O)(O)O (centres undefined) | > 100 µM | – | > 100 µM | > 100 µM | > 100 µM | > 100 µM | > 100 µM | > 100 µM | – | – | – | > 100 µM | – | – | > 100 µM | – | – | – | – | –
5 | OC1CCN2Cc3ccccc3N=C12 (centres undefined) | > 100 µM | > 100 µM | > 100 µM | > 100 µM | > 100 µM | > 100 µM | > 100 µM | > 100 µM | – | – | – | > 100 µM | – | – | > 100 µM | – | – | – | – | –
6 | NCC(=O)N[C@H]1c2ccsc2/C(=N/O)[C@H]1O | > 100 µM | > 100 µM | > 100 µM | > 100 µM | > 100 µM | > 100 µM | > 100 µM | > 100 µM | – | – | – | > 100 µM | – | – | > 100 µM | – | – | – | – | –
7 | Cc1ccccc1NC(=O)C(=O)C(C1OC(=O)c2ccccc21)[N+](=O)[O-] (centres undefined) | > 100 µM | > 100 µM | > 100 µM | > 100 µM | > 100 µM | > 100 µM | > 100 µM | > 100 µM | – | – | – | – | – | – | – | – | – | – | – | –
8 | COC1CCC(O)C(CO)O1 (centres undefined) | > 100 µM | > 100 µM | > 100 µM | > 100 µM | > 100 µM | > 100 µM | > 100 µM | – | – | – | – | – | – | – | – | – | – | – | – | –
9 | C[N+](C)(N)Cc1nc(-c2ccc(Cl)cc2)no1 | > 100 µM | > 100 µM | > 100 µM | > 100 µM | > 100 µM | > 100 µM | > 100 µM | > 100 µM | – | – | – | > 100 µM | – | – | > 100 µM | – | – | – | – | –
10 | O=C(O)CSC1=NCCN1 | > 100 µM | > 100 µM | > 100 µM | > 100 µM | > 100 µM | > 100 µM | > 100 µM | > 100 µM | – | – | – | > 100 µM | – | – | > 100 µM | – | – | – | – | –
